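Cultured in 96-well plates, cells were exposed to test compound for 48 hours across five concentrations. GI50 is the concentration that inhibits growth by half.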 The source made the active and inactive calls. Cut-off read from the data, not from the text of the source: active = GI50 up to about 1.1 µM and inactive = higher.
Assays:
Assay in all cases: NCI tumour cell line growth inhibition, 48 h
786-0 = system: 786-0
CAKI-1 = system: CAKI-1
EKVX = system: EKVX
HCT-116 = system: HCT-116
HCT-15 = system: HCT-15
IGROV-1 = system: IGROV-1
M14 = system: M14
Malme-3M = system: Malme-3M
NCI-H23 = system: NCI-H23
OVCAR-8 = system: OVCAR-8
RXF 393 = system: RXF 393
SF-295 = system: SF-295
SNB-19 = system: SNB-19
SNB-75 = system: SNB-75
SW-620 = system: SW-620
TK-10 = system: TK-10
UACC-62 = system: UACC-62

Structure (SMILES) | GI50 (786-0) | GI50 (CAKI-1) | GI50 (EKVX) | GI50 (HCT-116) | GI50 (HCT-15) [µM] | GI50 (IGROV-1) | GI50 (M14) | GI50 (Malme-3M) | GI50 (NCI-H23) | GI50 (OVCAR-8) | GI50 (RXF 393) | GI50 (SF-295) | GI50 (SNB-19) | GI50 (SNB-75) | GI50 (SW-620) | GI50 (TK-10) | GI50 (UACC-62)
O=C(CC(=O)C1=CNc2ccccc2S1)C(=O)Nc1ccc(Cl)cc1 | > 50 µM (inactive) | > 50 µM (inactive) | > 50 µM (inactive) | > 50 µM (inactive) | > 50 | > 50 µM (inactive) | > 50 µM (inactive) | > 50 µM (inactive) | > 50 µM (inactive) | > 50 µM (inactive) | > 50 µM (inactive) | > 50 µM (inactive) | > 50 µM (inactive) | > 50 µM (inactive) | > 50 µM (inactive) | > 50 µM (inactive) | > 50 µM (inactive)
COc1cc([C@@H]2c3cc4c(cc3[C@@H](OC(=O)c3cccc(N)c3)C3COC(=O)[C@@H]32)OCO4)cc(OC)c1O (some centres not stated) | 2.49 µM (inactive) | 1.84 µM (inactive) | 27 µM (inactive) | 5.71 µM (inactive) | 13.3 | 13.8 µM (inactive) | 0.933 µM (active) | 2.37 µM (inactive) | 1.19 µM (inactive) | 8.05 µM (inactive) | 0.632 µM (active) | 0.32 µM (active) | 34.8 µM (inactive) | 5.36 µM (inactive) | 3.33 µM (inactive) | 59.3 µM (inactive) | 0.667 µM (active)
CC1CN1c1c(C(=O)/C=C/c2ccc(Cl)cc2)c(-c2ccccc2)nn(C)c1=O (configuration not stated) | 2.81 µM (inactive) | 4.74 µM (inactive) | 3.63 µM (inactive) | 2.52 µM (inactive) | 1.82 | 3.05 µM (inactive) | 1.95 µM (inactive) | 8.97 µM (inactive) | 2.77 µM (inactive) | 2.55 µM (inactive) | 3.01 µM (inactive) | 3.96 µM (inactive) | 9.71 µM (inactive) | 2.65 µM (inactive) | 2.44 µM (inactive) | 2.92 µM (inactive) | 2.32 µM (inactive)
COC1OC(COCc2ccc(Cl)cc2)C(OCc2ccc(Cl)cc2)C1N=[N+]=[N-] (configuration not stated) | 4.7 µM (inactive) | > 100 µM (inactive) | > 100 µM (inactive) | > 100 µM (inactive) | > 100 | 72.3 µM (inactive) | > 100 µM (inactive) | > 100 µM (inactive) | 45.1 µM (inactive) | > 100 µM (inactive) | 27.1 µM (inactive) | > 100 µM (inactive) | > 100 µM (inactive) | 73.5 µM (inactive) | > 100 µM (inactive) | > 100 µM (inactive) | 15.3 µM (inactive)
COC(=O)C(=O)C(C#N)c1nc2ccccc2s1 (configuration not stated) | > 100 µM (inactive) | > 100 µM (inactive) | > 100 µM (inactive) | 97.1 µM (inactive) | 57 | > 100 µM (inactive) | > 100 µM (inactive) | > 100 µM (inactive) | > 100 µM (inactive) | > 100 µM (inactive) | > 100 µM (inactive) | > 100 µM (inactive) | > 100 µM (inactive) | 42.9 µM (inactive) | > 100 µM (inactive) | > 100 µM (inactive) | > 100 µM (inactive)
Oc1cc(O)c2c(-c3c(O)c(-c4ccc(O)c(O)c4)[o+]c4cc(O)cc(O)c34)c(O)c(-c3ccc(O)c(O)c3)[o+]c2c1 | 35.5 µM (inactive) | 36.9 µM (inactive) | 28.7 µM (inactive) | 48.8 µM (inactive) | 41.8 | 48 µM (inactive) | 55.5 µM (inactive) | 46 µM (inactive) | 40.3 µM (inactive) | 36.6 µM (inactive) | 35.9 µM (inactive) | 41.8 µM (inactive) | 36 µM (inactive) | 24 µM (inactive) | 48.4 µM (inactive) | 61.5 µM (inactive) | 22.6 µM (inactive)
